Twelve compounds from publication PMC12287522 (Scientific Reports, 2025) can be followed below.

For assay [1], the system named is human colorectal cancer cell line (HCT116). Kind of assay: MTT assay, HCT116 cell line. It counts as cell-based. The settings on record: for IC50: Homo sapiens, HCT-116, read-out: Anticancer activity (IC50) HCT116; for anticancer action against HCT116 (in words): SAR discussion.
Assay [2] has as its system human lung adenocarcinoma cell line (A549). Description: MTT assay, A549 cell line. It counts as cell-based. As to conditions: SAR discussion. In general terms: Tetrazolium assays rely on reduction of a dye to a coloured formazan, in cell work by metabolically active cells.

Regarding `COc1cccc2c1C(=O)c1c(O)c3c(c(O)c1C2=O)C[C@@](O)(C(=O)CO)C[C@@H]3O[C@H]1C[C@H](N)[C@H](O)[C@H](C)O1` [DXN, doxorubicin, reference compound], in assay [1], the IC50 (as a rule, the point on the concentration scale where inhibition reaches its midpoint) worked out at 7.27 ± 0.39 µM. For `O=Cc1cccc(NC(=O)Cn2cc(COc3ncnc4[nH]cnc34)nn2)c1` [5b, 2-(4-(((9 H-purin-6-yl)oxy)methyl)-1 H-1,2,3-triazol-1-yl)-N-(3-formylphenyl)acetamide], in assay [1], the 50% inhibitory concentration (IC50) was 15.6 ± 0.45 µM. In the case of `O=C(Cn1cc(COc2ncnc3[nH]cnc23)nn1)Nc1ccc([N+](=O)[O-])cc1` [5f, 2-(4-(((9 H-purin-6-yl)oxy)methyl)-1 H-1,2,3-triazol-1-yl)-N-(4-nitrophenyl)acetamide], in assay [2], the “inhibitory potential against A549 (in words)” value (“inhibitory potential” below) is on record as “significantly reduced”. Besides, the IC50 in assay [1] was found to be 13.9 ± 0.19 µM. With `COc1ccc(CNC(=O)Cn2cc(COc3ncnc4[nH]cnc34)nn2)cc1` [5k, 2-(4-(((9 H-purin-6-yl)oxy)methyl)-1 H-1,2,3-triazol-1-yl)-N-(4-methoxybenzyl)acetamide], the “anticancer action against HCT116 (in words)” value (“anticancer action” below) in assay [1] is listed as “did not exhibit anticancer action”. As to `O=C(Cn1cc(COc2ncnc3[nH]cnc23)nn1)Nc1ccc(F)c(Cl)c1` [5e, 2-(4-(((9 H-purin-6-yl)oxy)methyl)-1 H-1,2,3-triazol-1-yl)-N-(3-chloro-4-fluorophenyl)acetamide], the half-maximal inhibitory concentration (IC50) in assay [1] was 6.11 ± 0.29 µM. `O=C(Cn1cc(COc2ncnc3[nH]cnc23)nn1)Nc1ccc(O)cc1` [5 h, 2-(4-(((9 H-purin-6-yl)oxy)methyl)-1 H-1,2,3-triazol-1-yl)-N-(4-hydroxyphenyl)acetamide]: in assay [1], the concentration for half-maximal inhibition (IC50) was found to be 12.3 ± 0.52 µM and the “anticancer action” value is reported as “moderately inhibited”. In the case of `Cc1cncc(NC(=O)Cn2cc(COc3ncnc4[nH]cnc34)nn2)c1` [5a, 2-(4-(((9 H-purin-6-yl)oxy)methyl)-1 H-1,2,3-triazol-1-yl)-N-(5-methylpyridin-3-yl)acetamide], the IC50 in assay [1] worked out at 6.23 ± 0.23 µM. As for `O=C(Cn1cc(COc2ncnc3[nH]cnc23)nn1)NCc1ccc(O)cc1` [5i, 2-(4-(((9 H-purin-6-yl)oxy)methyl)-1 H-1,2,3-triazol-1-yl)-N-(4-hydroxybenzyl)acetamide], the “inhibitory potential” value in assay [2] is listed as “significantly reduced”. Further, in assay [1], the half-maximal inhibitory concentration (IC50) was 7.88 ± 0.6 µM and the “anticancer action” value is recorded as “moderately inhibited”. Turning to `O=C(Cn1cc(COc2ncnc3[nH]cnc23)nn1)NCc1ccc(Cl)cc1` [5j, 2-(4-(((9 H-purin-6-yl)oxy)methyl)-1 H-1,2,3-triazol-1-yl)-N-(4-chlorobenzyl)acetamide], in assay [1], the IC50 is 22.6 ± 0.38 µM. Take `Cc1ccc(NC(=O)Cn2cc(COc3ncnc4[nH]cnc34)nn2)c(C)c1` [5d, 2-(4-(((9 H-purin-6-yl)oxy)methyl)-1 H-1,2,3-triazol-1-yl)-N-(2,4-dimethylphenyl)acetamide]: in assay [1], the “anticancer action” value is on record as “did not exhibit anticancer action”. As to `Cc1cccc(NC(=O)Cn2cc(COc3ncnc4[nH]cnc34)nn2)c1` [5c, 2-(4-(((9 H-purin-6-yl)oxy)methyl)-1 H-1,2,3-triazol-1-yl)-N-(m-tolyl)acetamide], the “inhibitory potential” value in assay [2] is “significantly reduced”.

With `COc1cccc(NC(=O)Cn2cc(COc3ncnc4[nH]cnc34)nn2)c1` [5 g, 2-(4-(((9 H-purin-6-yl)oxy)methyl)-1 H-1,2,3-triazol-1-yl)-N-(3-methoxyphenyl)acetamide], in assay [1], the half-inhibitory concentration (IC50) was greater than 100 µM and the “anticancer action” value is “did not exhibit anticancer action”.
